# Test system: Rat Chronic Constriction Injury Model
# Conditions: 0.02 mg/kg/day subcutaneously
# Protocol: A 2-month chronic constriction injury (CCI) model of neuropathic pain was used to evaluate different formulations of a clonidine, encapsulated in bioerodable polymers compared to fluocinolone given subcutaneously (SC). Different formulations as provided in Table 5 below were evaluated for reducing pain-associated behaviors: Thermal paw withdrawal latency was evaluated at baseline 7, 14, 21, 28, 35, 42, 49, 56 and […] mechanical threshold was evaluated at 8, 15, 22, 29, 36, 43, 50, 57 and 64 days post-operatively.
# The inventor evaluated the efficacy of a five Month Clonidine/Polyrner Drug Depot in the Rat Chronic Constriction Injury Model. The animal model was the Bennett Model (Wistar rat). The purpose: To determine whether a five month polymer clonidine-eluting depot can improve pain associated behavioral responses in a rat model of neuropathic pain.
# Experimental Design: Four loose chromic gut ligatures, 1 mm apart, were tied around the common sciatic nerve at mid-thigh. Each animal received treatment of test or control article-according to the dosing described in Table 5.
# The inventor has conducted the present study for a period of 64 days and have employed the following two tests: (1) the Hargreaves test; and (2) the von Frey test. The Hargreaves Tests of Thermal Hyperalgesia were conducted on days 7, 14, 21, 28, 35, 42, 49, 56 and 63. […]
structure (smiles),measurement,setting,value
"Clc1cccc(Cl)c1N=C1NCCN1 [clonidine, 2,6-dichloro-N-2-imidazolidinyldenebenzenamine]",pain behavioral response (measured as a percentage of baseline) for thermal hyperalgesia,"FIG. 3, vs unloaded polymer depots 45%",58%
same,"pain behavioral response (percentage of baseline) for mechanical allodynia, in words","FIG. 4, compared to unloaded polymer depots",reduced the behavioral response

# From patent US8617583B2, “Alpha adrenergic receptor agonists for prevention or treatment of a hematoma, edema, and/or deep vein thrombosis” (Warsaw Orthopedic, Inc., priority 2009, dated 2013)
